US8222282B2, “Sulfonate salts of 2-amino-3-carbethoxyamino-6-(4-fluoro-benzylamino)-pyridine” (Teva Pharmaceuticals USA, Inc., priority 2008, dated 2012)

Key:
Type in all cases: physicochemical
[1] = Discolouration measurements, optical comparison with RAL scale of colours; details: 60° C. and 70° C., alone and in mixture with MCC, lactose or DiCaPhos, dry and 100% rh
Method: Discolouration was measured using optical comparison with a standard: the RAL scale of colours (see list). The colour changes during the experiment were compared to this standard list and the appropriate value was noted. The intensity was increasing on a scale ranging from 1 to 10.
A higher number means more discolouration. The increase in colour intensity is not proportional but qualitative.
The colouration of flupirtine maleate and flupirtine mesilate has been observed at 60° C. and at 70° C. with the substance alone and in mixture with micro crystalline cellulose (MCC), with lactose or with dicalcium phosphate DiCaPhos (CaHPO4). The tests were performed under dry and neat conditions. Neat refers to saturated with moisture, i.e., 100% relative humidity (rh). […] Only with lactose moisture had to be avoided for the mesilate.

[2] = Oxidative stability: HPLC of flupirtine salts after storage at room temperature under open air; details: for Flupirtine signal after 14 days (area under the peak in, %): HPLC after 14 days of storage at room temperature under open air; for Flupirtine signal after 0 days (area under the peak in, %): HPLC after isolation and drying; for decrease of area under the peak of the flupirtine signal: 0 to 14 days, room temperature, open air
Method: HPLC Method [table] HPLC analysis was performed after isolation and drying of flupirtine maleate form A and flupirtine sulfonate salts and repeated after 14 days of storage at room temperature under open air.

[3] = Bulk density of flupirtine salts; details: volume per 100.0 g of sample material
Method: The bulk density was determined as follows: Without increasing its density, sample material (about 4 grams) was introduced into a 10 ml measuring cylinder (±0.2 ml). The volume and the exact weight of the introduced sample material were determined. The bulk density was calculated as volume per 100.0 g of sample material.

[4] = Solubility in demineralised water (photometric); details: 60 min stirring at 20° C.; for solubility thermodynamic at 60 min: demineralised water
Method: […] Subsequently, an aliquot of the solution was centrifuged at 10,000 rpm and the flupirtine absorption was photometrically determined in the supernatant. The amount of flupirtine in solution was calculated with a response factor (absorption/mg substance).

[5] = Oxidative stability: HPLC of flupirtine salts after storage at room temperature under open air; details: exposed to air, 30 days at room temperature; in contrast to maleate, gluconate or inorganic salts

| Compound | discolouration compared to maleate [1] | Flupirtine signal after 14 days (area under the peak in, %) [2] | Flupirtine signal after 0 days (area under the peak in, %) [2] | Bulk density [3] | solubility thermodynamic at 60 min [4] | stability towards oxidation and towards discolouration [5] | decrease of area under the peak of the flupirtine signal [2] | Bulk density ([3]; listed as Maleate Form A) | Solubility [4] |
| --- | --- | --- | --- | --- | --- | --- | --- | --- | --- |
| CCOC(=O)Nc1ccc(NCc2ccc(F)cc2)nc1N.CS(=O)(=O)O [Flupirtine mesilate, 2-amino-3-carbethoxyamino-6-(4-fluoro-benzylamino)-pyridine Mesilate] | equal or less discolouration | 96.81% | 97.69% | 478 ml/100 g substance | 52 µg/mL | substantially improved stability | – | – | – |
| CCOC(=O)Nc1ccc(NCc2ccc(F)cc2)nc1N.O=S(=O)(O)c1ccccc1 [Flupirtine besilate, 2-amino-3-carbethoxyamino-6-(4-fluoro-benzylamino)-pyridine Besilate] | – | 96.87% | 96.93% | 358 ml/100 g substance | 32 µg/mL | substantially improved stability | less than 0.1% | – | – |
| CCOC(=O)Nc1ccc(NCc2ccc(F)cc2)nc1N.O=C(O)/C=C\C(=O)O [Flupirtine maleate A, reference compound] | – | 96.18% | 99.27% | – | – | – | 3.11% | 686 ml/100 g substance | 1.6 mg/100 ml water |

The next lines start with the values.

| discolouration compared to maleate [1] | Flupirtine signal after 14 days (area under the peak in, %) [2] | Flupirtine signal after 0 days (area under the peak in, %) [2] | Bulk density [3] | solubility thermodynamic at 60 min [4] | stability towards oxidation and towards discolouration [5] | decrease of area under the peak of the flupirtine signal [2] | Bulk density ([3]; listed as Maleate Form A) | Solubility [4] | Compound |
| --- | --- | --- | --- | --- | --- | --- | --- | --- | --- |
| – | – | – | 1634 ml/100 g substance | – | – | – | – | – | CCOC(=O)Nc1ccc(NCc2ccc(F)cc2)nc1N.O=C(O)/C=C\C(=O)O [Maleate Form B, reference compound] |
| – | – | – | 420 ml/100 g substance | – | – | – | – | – | CCOC(=O)Nc1ccc(NCc2ccc(F)cc2)nc1N.Cc1ccc(S(=O)(=O)O)cc1 [Flupirtine tosilate, 2-amino-3-carbethoxyamino-6-(4-fluoro-benzylamino)-pyridine Tosilate] |
